In patent publication US9309224B2 (Deciphera Pharmaceuticals, LLC, priority 2013, dated 2016) one finds IC50 and inhibition in vivo data, which are given here for 9 molecules.

The target in assay [1] is T1, unphosphorylated c-FMS kinase (uFMS, Seq. ID no. 1) (Homo sapiens, UniProt P07333).
T1 construct: purchased Millipore
T1 sequence (P07333 538-972): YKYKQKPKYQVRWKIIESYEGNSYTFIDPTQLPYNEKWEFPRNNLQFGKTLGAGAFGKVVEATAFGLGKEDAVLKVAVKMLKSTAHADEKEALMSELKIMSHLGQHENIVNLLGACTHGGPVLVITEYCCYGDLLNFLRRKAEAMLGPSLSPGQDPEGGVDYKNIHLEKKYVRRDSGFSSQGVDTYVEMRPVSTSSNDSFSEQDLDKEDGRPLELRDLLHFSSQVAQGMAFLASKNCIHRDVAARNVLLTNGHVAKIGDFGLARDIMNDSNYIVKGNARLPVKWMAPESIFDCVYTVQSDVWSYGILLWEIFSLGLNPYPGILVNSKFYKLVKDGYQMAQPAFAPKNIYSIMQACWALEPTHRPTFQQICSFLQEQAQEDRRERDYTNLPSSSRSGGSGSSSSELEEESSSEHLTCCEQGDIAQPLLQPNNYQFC
The experiment in a line: uFMS kinase assay (pyruvate kinase/lactate dehydrogenase coupled). The class given is biochemical. As to conditions: ATP 500 μM.

In assay [2] the target is T2, unphosphorylated c-KIT kinase (uKIT, Seq. ID no. 2) (Homo sapiens, UniProt P10721).
T2 construct: uKit with N-terminal GST fusion used for
T2 sequence (P10721 with tags, fused parts or gaps): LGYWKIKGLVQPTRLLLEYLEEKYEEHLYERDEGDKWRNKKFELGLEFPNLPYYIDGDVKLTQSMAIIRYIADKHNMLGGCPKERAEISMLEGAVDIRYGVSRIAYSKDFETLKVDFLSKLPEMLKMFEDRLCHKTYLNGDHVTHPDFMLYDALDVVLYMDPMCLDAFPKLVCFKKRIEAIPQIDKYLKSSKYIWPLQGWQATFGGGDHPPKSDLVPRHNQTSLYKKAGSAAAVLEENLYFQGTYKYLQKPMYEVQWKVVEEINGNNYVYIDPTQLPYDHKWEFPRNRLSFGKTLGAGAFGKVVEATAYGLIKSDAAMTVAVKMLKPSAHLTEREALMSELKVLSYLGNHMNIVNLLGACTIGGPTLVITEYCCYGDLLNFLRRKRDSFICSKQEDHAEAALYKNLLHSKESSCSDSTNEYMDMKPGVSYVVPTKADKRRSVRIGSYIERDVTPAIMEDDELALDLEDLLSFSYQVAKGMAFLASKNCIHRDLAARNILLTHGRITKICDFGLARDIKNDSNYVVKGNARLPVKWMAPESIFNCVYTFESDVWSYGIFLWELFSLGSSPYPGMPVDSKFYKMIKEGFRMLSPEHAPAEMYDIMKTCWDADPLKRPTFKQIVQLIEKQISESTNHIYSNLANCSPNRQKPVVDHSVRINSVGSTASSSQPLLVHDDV
The experiment in a line: uKit kinase assay (pyruvate kinase/lactate dehydrogenase coupled). The class given is biochemical. Particulars: ATP 2000 μM.
Description: In this assay, the oxidation of NADH (thus the decrease at A340 nm) was continuously monitored spectrophometrically. […] The inhibition reaction was started by mixing serial diluted test compound with the above reaction mixture. The absorption at 340 nm was monitored continuously for 4 hours at 30° C. on Synergy 2 plate reader (BioTech).

Assay [3] concerns the target T3, unphosphorylated PDGFRβ kinase (uPDGFRβ, Seq. ID No. 3) (Homo sapiens, UniProt P09619).
T3 construct: purchased DeCode
The experiment in a line: Unphosphorylated PDGFRβ kinase assay (pyruvate kinase/lactate dehydrogenase coupled). The class given is biochemical. As to conditions: ATP 500 μM. An excerpt:
Unphosyhorylated PDGFRβ (uPDGFRβkinase (Seq. ID No. 3) assay

Another assay relates to M-NFS-60 cells. The experiment in a line: M-NFS-60 cell proliferation assay. It counts as cell-based. Particulars: 67 h incubation, resazurin.
A further assay deals with osteoclast precursors. The experiment in a line: Osteoclast tartrate-resistant acid phosphatase assay. Particulars: Osteoclast; 7-14 days, RANKL and M-CSF. The class given is cell-based.
The target in assay [4] is T4, phospho-FMS in THP-1 cells (Homo sapiens, UniProt P07333).
T4 construct: endogenous in cells; host or cells: THP-1 (ATCC TIB-202)
T4 sequence (P07333 20-972): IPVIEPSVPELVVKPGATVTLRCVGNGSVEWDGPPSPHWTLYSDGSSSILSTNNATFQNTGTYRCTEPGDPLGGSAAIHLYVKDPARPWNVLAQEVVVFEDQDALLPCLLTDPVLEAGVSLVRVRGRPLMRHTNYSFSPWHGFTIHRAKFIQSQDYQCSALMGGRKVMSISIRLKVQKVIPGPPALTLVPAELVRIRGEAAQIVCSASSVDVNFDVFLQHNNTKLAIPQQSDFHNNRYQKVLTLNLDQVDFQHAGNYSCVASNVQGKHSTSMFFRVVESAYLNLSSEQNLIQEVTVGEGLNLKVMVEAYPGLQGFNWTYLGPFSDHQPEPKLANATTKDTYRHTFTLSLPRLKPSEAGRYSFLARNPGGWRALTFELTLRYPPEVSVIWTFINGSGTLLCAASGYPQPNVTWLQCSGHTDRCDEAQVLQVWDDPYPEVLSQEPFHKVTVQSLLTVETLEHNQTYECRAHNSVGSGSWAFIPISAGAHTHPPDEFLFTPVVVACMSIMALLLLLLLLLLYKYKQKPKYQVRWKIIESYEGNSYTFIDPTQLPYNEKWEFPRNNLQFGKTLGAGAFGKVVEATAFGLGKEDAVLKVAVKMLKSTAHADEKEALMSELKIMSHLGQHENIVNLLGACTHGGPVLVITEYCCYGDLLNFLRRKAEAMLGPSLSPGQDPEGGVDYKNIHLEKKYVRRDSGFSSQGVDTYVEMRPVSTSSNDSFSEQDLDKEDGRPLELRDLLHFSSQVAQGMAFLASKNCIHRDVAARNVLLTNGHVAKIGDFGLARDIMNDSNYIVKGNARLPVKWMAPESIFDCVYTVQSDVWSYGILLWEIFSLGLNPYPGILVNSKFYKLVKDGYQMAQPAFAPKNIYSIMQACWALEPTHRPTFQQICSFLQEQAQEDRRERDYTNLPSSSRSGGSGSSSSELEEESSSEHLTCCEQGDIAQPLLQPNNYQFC
The experiment in a line: Phospho-FMS ELISA assay in THP-1 cells. It counts as cell-based. Particulars: 4 hours compound, M-CSF stimulated; read-out: pFMS inhibition in THP-1 cells.

The subject of a further assay is c-FMS. The experiment in a line: cFOS mRNA production in a c-FMS mouse spleen pharmacodynamic model. It counts as in vivo. Particulars: out to 8 h post 30 mg/kg single oral dose, read-out: inhibition of cFOS mRNA levels. How it is done:
Analysis of cFOS mRNA Production in a c-FMS Mouse Spleen Pharmacodynamic Model To examine the in vivo modulation of FMS activity by compounds of formula I, spleen samples from female DBA/1 mice were collected and analyzed for M-CSF stimulated production of cFOS mRNA. Briefly, six to seven week old female Taconic DBA/1BO J Bom Tac mice were treated with a single oral dose (by gavage) of either vehicle or compound. Plasma and spleen samples are collected from four mice at each timepoint 2, 4, 6, 8, 12, 18, and 24 hours after dosing. Fifteen minutes prior to euthanasia, all mice were injected IV with 1 μg (100 μL fixed volume) of M-CSF. M-CSF, Recombinant Mouse Macrophage Colony Stimulating Factor (36.4 kDa homodimer, ≧98% purity) was obtained from Gibco. All procedures carried out in this experiment were conducted in compliance with all the laws, regulations and guidelines of the National Institutes of Health (NIH). cFOS mRNA levels in spleen extracts were determined using a quantitative reverse transcriptase PCR kit from Life Technologies. Plasma levels of FMS inhibitors were determined by mass spectrometer analysis. The degree of FMS inhibition was correlative to the amount of decrease observed in cFOS mRNA levels in the spleen samples of treated animals compared to vehicle.

T3 sequence (P09619 557-1105): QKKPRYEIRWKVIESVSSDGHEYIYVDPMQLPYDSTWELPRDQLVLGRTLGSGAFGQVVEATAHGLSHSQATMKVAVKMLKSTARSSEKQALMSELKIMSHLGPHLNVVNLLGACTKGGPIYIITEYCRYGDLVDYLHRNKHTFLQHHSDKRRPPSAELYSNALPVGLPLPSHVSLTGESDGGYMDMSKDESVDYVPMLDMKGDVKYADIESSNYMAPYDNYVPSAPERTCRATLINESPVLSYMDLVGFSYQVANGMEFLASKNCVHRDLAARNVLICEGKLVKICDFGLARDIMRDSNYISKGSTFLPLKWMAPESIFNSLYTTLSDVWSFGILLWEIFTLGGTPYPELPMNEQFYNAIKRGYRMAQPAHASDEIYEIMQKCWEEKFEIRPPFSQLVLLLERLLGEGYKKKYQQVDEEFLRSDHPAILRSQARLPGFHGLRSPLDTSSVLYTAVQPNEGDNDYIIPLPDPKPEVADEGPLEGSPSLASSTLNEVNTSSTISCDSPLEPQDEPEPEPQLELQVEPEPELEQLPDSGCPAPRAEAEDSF
Description for M-NFS-60 cells: M-NFS-60 Cell Proliferation Assay A serial dilution of test compound was dispensed into a 384-well black clear bottom plate (Corning, Corning, N.Y.). Two thousand five hundred cells were added per well in 50 μL complete growth medium. […] IC50 values were calculated from a series of percent inhibition values determined at a range of inhibitor concentrations using software routines as implemented in the GraphPad Prism software package.

For the molecule `CC(=O)Nc1cc(Oc2ccc(NC(=O)NC(=O)C(C)(C)C)nc2)ccn1` [Example 3, N-((5-((2-acetamidopyridin-4-yl)oxy)pyridin-2-yl)carbamoyl)pivalamide], the IC50 in assay [1] is below 0.01 µM; in assay [2], above 1 µM; in assay [3], above 1 µM; with M-NFS-60 cells, 0.01 to 0.1 µM; in the assay with osteoclast precursors it was below 0.01 µM; in assay [4], below 0.01 µM. Besides, the inhibition in vivo at 30 mg/kg with c-FMS was at least 50%.

As for `CC(=O)Nc1cc(Oc2ccc(NC(=O)NC(=O)C3CCCC3)nc2C)ccn1` [Example 8, N-((5-((2-acetamidopyridin-4-yl)oxy)-6-methylpyridin-2-yl)carbamoyl)cyclopentanecarboxamide], the IC50 was below 0.01 µM in assay [1]; 0.1 to 1 µM in assay [2]; 0.01 to 0.1 µM in assay [3]; below 0.01 µM in the assay on M-NFS-60 cells; below 0.01 µM in the assay with osteoclast precursors; below 0.01 µM in assay [4]. The inhibition in vivo at 30 mg/kg in the assay with c-FMS is at least 50%.

In the case of `Cc1nc(NC(=O)NC(=O)C(C)(C)C)ccc1Oc1ccnc(NC(=O)C2CC2)c1` [Example 11, N-(4-((2-methyl-6-(3-pivaloylureido)pyridin-3-yl)oxy)pyridin-2-yl)cyclopropanecarboxamide], the IC50 was below 0.01 µM in assay [1]; above 1 µM in assay [2]; 0.01 to 0.1 µM in assay [3]; below 0.01 µM in the assay with M-NFS-60 cells; below 0.01 µM in the assay with osteoclast precursors; below 0.01 µM in assay [4]. For the same molecule, the inhibition in vivo at 30 mg/kg in the assay on c-FMS was at least 50%.

On to `CN1CCC(C(=O)Nc2cc(Oc3ccc(NC(=O)NC(=O)C(C)(C)C)nc3)ccn2)CC1` [Example 21, 1-methyl-N-(4-((6-(3-pivaloylureido)pyridin-3-yl)oxy)pyridin-2-yl)piperidine-4-carboxamide], for which the IC50 in assay [1] was below 0.01 µM; in assay [2], above 1 µM; in assay [3], above 1 µM; with M-NFS-60 cells, 0.01 to 0.1 µM; in the assay on osteoclast precursors it was below 0.01 µM; in assay [4], 0.01 to 0.1 µM. In addition, in the assay with c-FMS, the inhibition in vivo at 30 mg/kg was at least 50%.

In the case of `CN(C)C(=O)Nc1cc(Oc2ccc(NC(=O)NC(=O)C(C)(C)C)nc2)ccn1` [Example 23, N-((5-((2-(3,3-dimethylureido)pyridin-4-yl)oxy)pyridin-2-yl)carbamoyl)pivalamide], the IC50 in assay [1] was below 0.01 µM; in assay [2], above 1 µM; in assay [3], 0.1 to 1 µM; in the assay with M-NFS-60 cells, below 0.01 µM; in the assay with osteoclast precursors, below 0.01 µM; in assay [4], below 0.01 µM. In the assay on c-FMS, the inhibition in vivo at 30 mg/kg is at least 50%.

As to `COC(C)(C)C(=O)NC(=O)Nc1ccc(Oc2ccnc(NC(C)=O)c2)cn1` [Example 26, N-((5-((2-acetamidopyridin-4-yl)oxy)pyridin-2-yl)carbamoyl)-2-methoxy-2-methylpropanamide], the IC50 in assay [1] is below 0.01 µM; in assay [2] it was above 1 µM; in assay [3], 0.1 to 1 µM; in the assay with M-NFS-60 cells it was 0.01 to 0.1 µM; with osteoclast precursors, below 0.01 µM; in assay [4], below 0.01 µM. In the assay with c-FMS, the inhibition in vivo at 30 mg/kg is at least 50%.

With `CNC(=O)c1cc(Oc2ccc(NC(=O)NC(=O)C(C)(C)C)nc2)ccn1` [Example 34, N-methyl-4-((6-(3-pivaloylureido)pyridin-3-yl)oxy)picolinamide], the IC50 in assay [1] is below 0.01 µM; in assay [2], above 1 µM; in assay [3], above 1 µM; in the assay with M-NFS-60 cells, 0.01 to 0.1 µM; in the assay on osteoclast precursors it was 0.01 to 0.1 µM; in assay [4], 0.01 to 0.1 µM. Moreover, in the assay on c-FMS, the inhibition in vivo at 30 mg/kg is at least 50%.

For the molecule `Cc1nc(NC(=O)NC(=O)C(C)(C)C)ccc1Oc1ccnc(NC(=O)N(C)C)c1` [Example 62, N-((5-((2-(3,3-dimethylureido)pyridin-4-yl)oxy)-6-methylpyridin-2-yl)carbamoyl)pivalamide], the IC50 in assay [1] is below 0.01 µM; in assay [2], above 1 µM; in assay [3] it was above 1 µM; in the assay on M-NFS-60 cells, below 0.01 µM; with osteoclast precursors, 0.01 to 0.1 µM; in assay [4], below 0.01 µM. Moreover, the inhibition in vivo at 30 mg/kg in the assay with c-FMS is at least 50%.

Consider `CC(C)(C)C(=O)NC(=O)Nc1ccc(Oc2ccnc(NC(=O)N3CCNCC3)c2)cn1` [Example 83, N-(4-((6-(3-pivaloylureido)pyridin-3-yl)oxy)pyridin-2-yl)piperazine-1-carboxamide], for which the IC50 was below 0.01 µM in assay [1]; above 1 µM in assay [2]; 0.1 to 1 µM in assay [3]; 0.01 to 0.1 µM in the assay on M-NFS-60 cells; below 0.01 µM with osteoclast precursors; below 0.01 µM in assay [4]. The inhibition in vivo at 30 mg/kg with c-FMS is at least 50%.
